Test results from ChEMBL document CHEMBL1212831, “Discovery of N-[(2S)-5-(6-fluoro-3-pyridinyl)-2,3-dihydro-1H-inden-2-yl]-2-propanesulfonamide, a novel clinical AMPA receptor positive modulator” (J Med Chem, 2010).
Activity calls are given as the source filed them. The calls are words filed in the database; no cut-off is given here.

Tests used:
[1] = molecular target: Cytochrome P450 3A4 (Homo sapiens, UniProt P08684)
Description: Inhibition of human CYP3A4 after 10 mins

[2] = molecular target: Glutamate receptor 2 (Homo sapiens, UniProt P42262)
Description: Activation of human GluR2 flip isoform expressed in HEK293 cells assessed as increase of glutamate-induced intracellular calcium level by FLIPR assay

[3] = system: Liver microsomes
[4] = molecular target: Cytochrome P450 2D6 (Homo sapiens, UniProt P10635)
Description: Inhibition of human CYP2D6 after 10 mins

[5] = molecular target: Cytochrome P450 2C19 (Homo sapiens, UniProt P33261)
Description: Inhibition of human CYP2C19 after 10 mins

[6] = system: Liver microsomes; remark: listed apart in the source
[7] = molecular target: T1, Cytochrome P450 1A2 (Homo sapiens, UniProt P05177)
T1 sequence (P05177 whole entry): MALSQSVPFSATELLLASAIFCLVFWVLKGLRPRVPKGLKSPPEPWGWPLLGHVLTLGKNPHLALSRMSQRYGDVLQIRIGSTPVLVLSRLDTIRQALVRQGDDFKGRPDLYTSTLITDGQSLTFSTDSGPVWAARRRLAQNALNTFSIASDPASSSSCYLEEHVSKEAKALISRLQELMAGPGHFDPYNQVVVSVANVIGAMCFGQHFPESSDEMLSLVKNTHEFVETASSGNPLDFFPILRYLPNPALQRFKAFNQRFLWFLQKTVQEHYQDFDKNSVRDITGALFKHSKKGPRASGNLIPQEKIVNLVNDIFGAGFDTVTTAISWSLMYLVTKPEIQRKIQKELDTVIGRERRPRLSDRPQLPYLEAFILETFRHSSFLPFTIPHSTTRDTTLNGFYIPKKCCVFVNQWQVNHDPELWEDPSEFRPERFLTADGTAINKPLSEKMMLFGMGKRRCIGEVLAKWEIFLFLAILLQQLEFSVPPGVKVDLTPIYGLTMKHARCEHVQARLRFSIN
Description: Inhibition of human CYP1A2 after 10 mins

[8] = molecular target: Cytochrome P450 2C9 (Homo sapiens, UniProt P11712)
Description: Inhibition of human CYP2C9 after 10 mins

[9] = AUC (0 to t) in rat; type: ADME, organism-based; details: plasma
[10] = in vivo; details: rat, brain/blood
Description: Ratio of brain AUC (0 to t) to blood AUC (0 to t) in rat

[11] = Plasma protein binding in rat at 1 ug/ml after 6 hrs by equilibrium dialysis method; type: ADME, cell-free; details: read-out: PPB (converted)
[12] = physchem
Description: Dissociation constant, pKa of the compound

[13] = system: MDR1 (human); experiment: in vitro; details: dog, MDCK-MDR1
Description: Efflux ratio of permeability from basolateral to apical over apical to basolateral side of MDCK2 cells over expressing human MDR1

[14] = system: Rattus norvegicus; experiment: Antiamnesic activity in po dosed assessed as inhibition of Scopolamine-induced amnesic deficit administered 3 hrs before Scopolamine challenge by step-down passive avoidance test; type: functional, organism-based; details: Wistar
[15] = system: Rattus norvegicus; experiment: Cognitive enhancing effect in po dosed Lister Hooded rat assessed as reversal of 24 hrs delay-induced retention deficit behavior by novel object recognition assay; type: functional; details: read-out: MED
[16] = Cmax in Sprague-Dawley rat at 3 mg/kg, po; type: ADME, organism-based; parameters: dose 3 mg/kg, route oral; details: in vivo
[17] = Tmax in Sprague-Dawley rat at 3 mg/kg, po; type: ADME, organism-based; parameters: dose 3 mg/kg, route oral; details: in vivo
[18] = system: Rattus norvegicus; experiment: Antiamnesic activity in po dosed assessed as inhibition of amnesic deficit by step-down passive avoidance test; type: functional, organism-based; details: Wistar
[19] = system: Brain; experiment: Brain tissue binding in rat at 1 ug/ml after 6 hrs by equilibrium dialysis method; type: ADME, tissue-based
[20] = Blood clearance in Sprague-Dawley rat at 1 mg/kg, iv and 3 mg/kg, po; type: ADME, organism-based
[21] = system: Blood; experiment: Drug level in po dosed Lister Hooded rat blood; type: ADME, organism-based; details: in vivo
[22] = Half life in Sprague-Dawley rat at 1 mg/kg, iv and 3 mg/kg, po; type: ADME, organism-based; details: in vivo
[23] = Oral bioavailability in Sprague-Dawley rat at 3 mg/kg; type: ADME, organism-based; details: in vivo
[24] = Volume of distribution at steady state in Sprague-Dawley rat at 1 mg/kg, iv and 3 mg/kg, po; type: ADME, organism-based; details: in vivo, read-out: Vdss
[25] = system: Brain; experiment: Drug level in po dosed Lister Hooded rat brain assessed per gram of tissue; type: ADME, organism-based; details: in vivo

Chain of Cytochrome P450 3A4 (P08684 whole entry): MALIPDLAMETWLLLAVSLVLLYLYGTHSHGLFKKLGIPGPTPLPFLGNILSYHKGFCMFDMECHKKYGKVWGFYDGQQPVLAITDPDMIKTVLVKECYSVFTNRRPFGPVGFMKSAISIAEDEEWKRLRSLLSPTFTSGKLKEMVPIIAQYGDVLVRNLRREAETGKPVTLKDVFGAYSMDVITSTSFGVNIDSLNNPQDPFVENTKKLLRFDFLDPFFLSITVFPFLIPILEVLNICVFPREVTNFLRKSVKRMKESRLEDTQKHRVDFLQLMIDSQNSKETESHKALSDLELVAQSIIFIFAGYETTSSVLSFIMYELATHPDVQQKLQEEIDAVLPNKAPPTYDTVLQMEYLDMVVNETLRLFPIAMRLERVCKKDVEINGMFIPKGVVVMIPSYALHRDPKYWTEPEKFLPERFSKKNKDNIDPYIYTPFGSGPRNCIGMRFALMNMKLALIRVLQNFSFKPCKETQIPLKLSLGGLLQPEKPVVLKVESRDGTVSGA
Chain of Cytochrome P450 2C19 (P33261 whole entry): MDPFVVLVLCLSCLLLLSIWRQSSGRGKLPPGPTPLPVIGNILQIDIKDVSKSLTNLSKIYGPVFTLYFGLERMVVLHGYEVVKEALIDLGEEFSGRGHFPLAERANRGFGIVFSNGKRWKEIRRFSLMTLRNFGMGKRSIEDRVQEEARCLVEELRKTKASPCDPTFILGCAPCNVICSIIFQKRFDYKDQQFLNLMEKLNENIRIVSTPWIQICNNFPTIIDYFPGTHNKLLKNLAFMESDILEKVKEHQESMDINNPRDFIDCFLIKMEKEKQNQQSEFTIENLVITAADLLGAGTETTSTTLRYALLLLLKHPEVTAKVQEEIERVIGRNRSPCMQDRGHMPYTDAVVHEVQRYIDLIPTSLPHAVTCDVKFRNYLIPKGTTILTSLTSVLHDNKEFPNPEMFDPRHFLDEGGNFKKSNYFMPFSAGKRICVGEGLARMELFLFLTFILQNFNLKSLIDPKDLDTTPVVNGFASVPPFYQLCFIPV
Chain of Cytochrome P450 2C9 (P11712 whole entry): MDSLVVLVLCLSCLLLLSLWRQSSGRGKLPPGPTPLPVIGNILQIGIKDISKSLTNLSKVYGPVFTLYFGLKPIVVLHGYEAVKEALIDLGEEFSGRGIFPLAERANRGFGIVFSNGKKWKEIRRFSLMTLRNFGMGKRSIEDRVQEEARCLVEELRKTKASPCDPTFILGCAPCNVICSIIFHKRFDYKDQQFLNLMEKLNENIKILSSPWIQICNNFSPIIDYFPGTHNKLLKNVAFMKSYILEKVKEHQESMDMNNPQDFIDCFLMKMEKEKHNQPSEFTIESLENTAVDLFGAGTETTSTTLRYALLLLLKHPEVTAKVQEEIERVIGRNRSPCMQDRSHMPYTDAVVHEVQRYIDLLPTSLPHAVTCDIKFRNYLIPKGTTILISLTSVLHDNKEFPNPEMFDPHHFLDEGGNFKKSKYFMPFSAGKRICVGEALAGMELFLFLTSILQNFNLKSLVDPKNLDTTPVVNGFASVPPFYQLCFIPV
Chain of Cytochrome P450 2D6 (P10635 whole entry): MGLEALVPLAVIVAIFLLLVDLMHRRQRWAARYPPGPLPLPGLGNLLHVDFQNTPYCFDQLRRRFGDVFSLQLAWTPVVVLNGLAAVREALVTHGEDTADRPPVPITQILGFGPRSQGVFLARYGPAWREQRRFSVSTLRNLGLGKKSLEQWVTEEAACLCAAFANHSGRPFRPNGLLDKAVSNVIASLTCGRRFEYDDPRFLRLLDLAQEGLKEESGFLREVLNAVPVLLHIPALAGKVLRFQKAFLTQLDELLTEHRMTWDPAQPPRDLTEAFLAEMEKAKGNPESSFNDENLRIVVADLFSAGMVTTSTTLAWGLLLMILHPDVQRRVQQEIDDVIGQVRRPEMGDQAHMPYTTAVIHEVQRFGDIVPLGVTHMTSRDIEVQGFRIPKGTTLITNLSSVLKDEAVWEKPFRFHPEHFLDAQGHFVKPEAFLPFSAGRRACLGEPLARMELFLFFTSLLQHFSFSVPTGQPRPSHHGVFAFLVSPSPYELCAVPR
Chain of Glutamate receptor 2 (P42262 whole entry): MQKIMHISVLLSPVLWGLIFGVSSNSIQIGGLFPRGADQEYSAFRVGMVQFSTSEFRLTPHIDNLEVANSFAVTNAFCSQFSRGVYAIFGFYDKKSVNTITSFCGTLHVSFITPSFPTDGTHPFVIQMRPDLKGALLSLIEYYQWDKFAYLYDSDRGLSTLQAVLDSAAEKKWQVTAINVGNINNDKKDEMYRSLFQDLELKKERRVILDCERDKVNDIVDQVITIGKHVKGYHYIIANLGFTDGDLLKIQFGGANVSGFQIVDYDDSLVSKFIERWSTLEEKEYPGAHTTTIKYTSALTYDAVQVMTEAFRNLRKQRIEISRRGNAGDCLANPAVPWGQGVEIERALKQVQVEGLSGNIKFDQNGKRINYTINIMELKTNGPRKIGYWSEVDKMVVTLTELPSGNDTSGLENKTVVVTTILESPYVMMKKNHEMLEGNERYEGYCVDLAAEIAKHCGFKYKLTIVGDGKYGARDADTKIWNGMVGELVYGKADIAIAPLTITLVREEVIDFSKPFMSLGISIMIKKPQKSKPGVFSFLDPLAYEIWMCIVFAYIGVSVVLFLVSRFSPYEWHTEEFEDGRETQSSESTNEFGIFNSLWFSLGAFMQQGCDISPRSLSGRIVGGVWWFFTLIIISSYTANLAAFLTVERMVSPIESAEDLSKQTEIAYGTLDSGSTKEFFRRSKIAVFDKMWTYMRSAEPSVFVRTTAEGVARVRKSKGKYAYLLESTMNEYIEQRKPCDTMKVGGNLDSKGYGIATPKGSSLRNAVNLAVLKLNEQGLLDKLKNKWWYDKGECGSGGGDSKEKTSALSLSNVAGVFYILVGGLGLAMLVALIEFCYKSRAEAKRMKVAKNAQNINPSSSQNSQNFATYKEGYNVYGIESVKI

SMILES | IC50 [1] | EC50 [2] | IC50 [3] | IC50 [4] | IC50 [5] | IC50 [6] | IC50 [7] | IC50 [8] | pKa [12] | also measured
CC(C)S(=O)(=O)N[C@@H]1Cc2ccc(-c3ccc(F)nc3)cc2C1 | – | – | – | > 10 µM | – | – | – | – | – | –
CC(C)S(=O)(=O)NC1Cc2ccc(-c3cccc(CN4CCCC4=O)c3)cc2C1 (stereo unspecified) | – | 12.6 µM | – | – | – | – | – | – | – | AUC(0-t) [9]: 36 ng·h/mL; Kp [10]: 0.4; fraction unbound at 6 h, 1 ug/ml [11]: 0.024
CC(C)S(=O)(=O)NC1Cc2ccc(-c3cccnc3)cc2C1 (stereo unspecified) | > 10 µM | 15.8 µM | 2.1 µM | > 10 µM | > 10 µM | < 0.5 µM | 0.6 µM | > 10 µM | 5.1 | –
CC(C)C(=O)Nc1cccc(-c2ccc3c(c2)CC(NS(=O)(=O)C(C)C)C3)c1 (stereo unspecified) | – | > 50.1 µM | – | – | – | – | – | – | – | –
Cc1ccncc1-c1ccc2c(c1)CC(NS(=O)(=O)C(C)C)C2 (stereo unspecified) | > 9 µM | 20 µM | 4.5 µM | > 10 µM | > 10 µM | 1.4 µM | > 10 µM | > 10 µM | 5.8 | –
Cc1cccnc1-c1ccc2c(c1)CC(NS(=O)(=O)C(C)C)C2 (stereo unspecified) | > 10 µM | 20 µM | 14 µM | > 10 µM | > 10 µM | 1.3 µM | > 10 µM | > 10 µM | 4.9 | –
CC(=O)Nc1cccc(-c2ccc3c(c2)CC(NS(=O)(=O)C(C)C)C3)c1 (stereo unspecified) | – | 20 µM | – | – | – | – | – | – | – | fraction unbound at 6 h, 1 ug/ml [11]: 0.051
CC(C)S(=O)(=O)NC1Cc2ccc(-c3ccc(F)nc3)cc2C1 (stereo unspecified) | > 10 µM | – | 1.1 µM | > 10 µM | > 10 µM | 1.7 µM | > 10 µM | > 10 µM | – | –
CC(C)S(=O)(=O)NC1Cc2ccc(-c3cccc(CN4CCCS4(=O)=O)c3)cc2C1 (stereo unspecified) | – | 0.398 µM | – | – | – | – | – | – | – | fraction unbound at 6 h, 1 ug/ml [11]: 0.033
CC(C)S(=O)(=O)NC1Cc2ccc(-c3cncc(C#N)c3)cc2C1 (stereo unspecified) | > 10 µM | 63.1 µM | < 0.5 µM | > 10 µM | > 10 µM | 0.7 µM | > 10 µM | > 10 µM | – | –
CC(=O)c1cccc(-c2ccc3c(c2)CC(NS(=O)(=O)C(C)C)C3)c1 (stereo unspecified) | – | > 50.1 µM | – | – | – | – | – | – | – | –
CC(C)S(=O)(=O)NC1Cc2ccc(-c3cccnc3F)cc2C1 (stereo unspecified) | > 10 µM | 15.8 µM | 2.5 µM | > 10 µM | 9 µM | 2.1 µM | > 10 µM | > 10 µM | – | Kp [10]: 1.5
CC(C)S(=O)(=O)NC1Cc2ccc(-c3cccc(C#N)c3)cc2C1 (stereo unspecified) | – | > 50.1 µM | – | – | – | – | – | – | – | –
CC(C)S(=O)(=O)NC1Cc2ccc(-c3cccc(NS(C)(=O)=O)c3)cc2C1 (stereo unspecified) | – | 0.794 µM | – | – | – | – | – | – | – | efflux ratio [13]: 5.8; AUC(0-t) [9]: 1130 ng·h/mL; Kp [10]: 0.1; fraction unbound at 6 h, 1 ug/ml [11]: 0.041

The next lines start with results.

IC50 [1] | EC50 [2] | IC50 [3] | IC50 [4] | IC50 [5] | IC50 [6] | IC50 [7] | IC50 [8] | pKa [12] | SMILES | also measured
> 10 µM | 7.94 µM | < 0.8 µM | > 10 µM | > 10 µM | < 0.5 µM | > 10 µM | > 10 µM | – | CC(C)S(=O)(=O)NC1Cc2ccc(-c3ccc(Cl)cn3)cc2C1 (stereo unspecified) | –
– | 2.51 µM | – | – | – | – | – | – | – | CCS(=O)(=O)Nc1cccc(-c2ccc3c(c2)CC(NS(=O)(=O)C(C)C)C3)c1 (stereo unspecified) | –
– | 0.398 µM | – | – | – | – | – | – | – | CC(C)S(=O)(=O)NC[C@H](C)c1ccc(NC(=O)c2cc(F)cc(F)c2)cc1 | –
– | 1.26 µM | – | – | – | – | – | – | – | CC(C)S(=O)(=O)NC1Cc2ccc(-c3cccc(N(C)S(C)(=O)=O)c3)cc2C1 (stereo unspecified) | efflux ratio [13]: 3.2; AUC(0-t) [9]: 161 ng·h/mL; Kp [10]: 0.4; fraction unbound at 6 h, 1 ug/ml [11]: 0.036
> 10 µM | 2 µM | 1.6 µM | > 10 µM | > 10 µM | < 0.5 µM | > 10 µM | > 10 µM | 2.7 | CC(C)S(=O)(=O)N[C@H]1Cc2ccc(-c3ccc(F)cn3)cc2C1 | Activity [14]: Dose-dependent effect; minimal effective dose [15]: 0.3 mg/kg; Cmax [16]: 436 ng/mL; efflux ratio [13]: 1.1; Tmax [17]: 30 min; inhibition [18]: inactive; Activity [19]: 97.9%; clearance [20]: 24 mL/min/kg; Drug uptake [21]: 37 ng/mL; half-life [22]: 60 min; Kp [10]: 1.4; bioavailability [23]: 72%; Vd [24]: 2.2 L/kg; fraction unbound at 6 h, 1 ug/ml [11]: 0.097; Drug uptake [25]: 70 ng/g
– | 7.94 µM | – | – | – | – | – | – | – | CC(C)S(=O)(=O)NC1Cc2ccc(-c3cccc(S(=O)(=O)N(C)C)c3)cc2C1 (stereo unspecified) | –
> 10 µM | 2 µM | 3.5 µM | > 10 µM | > 10 µM | < 0.6 µM | > 10 µM | > 10 µM | 5.8 | Cc1ccc(-c2ccc3c(c2)C[C@@H](NS(=O)(=O)C(C)C)C3)cn1 | Cmax [16]: 116 ng/mL; efflux ratio [13]: 0.9; Tmax [17]: 60 min; Activity [19]: 96.7%; clearance [20]: 55 mL/min/kg; half-life [22]: 36 min; Kp [10]: 1.3; bioavailability [23]: 25%; Vd [24]: 2.4 L/kg; fraction unbound at 6 h, 1 ug/ml [11]: 0.078
– | 6.31 µM | – | – | – | – | – | – | – | CC(=O)Cc1cccc(-c2ccc3c(c2)CC(NS(=O)(=O)C(C)C)C3)c1 (stereo unspecified) | –
> 10 µM | 6.31 µM | 0.6 µM | > 10 µM | > 10 µM | 0.5 µM | > 10 µM | > 10 µM | 2.7 | CC(C)S(=O)(=O)NC1Cc2ccc(-c3ccc(F)cn3)cc2C1 (stereo unspecified) | –
> 10 µM | 3.16 µM | 2 µM | > 10 µM | > 10 µM | 0.7 µM | > 10 µM | > 10 µM | 5.7 | Cc1ccc(-c2ccc3c(c2)CC(NS(=O)(=O)C(C)C)C3)cn1 (stereo unspecified) | Kp [10]: 1.4
> 10 µM | 3.16 µM | 7.3 µM | > 10 µM | > 10 µM | 0.8 µM | > 10 µM | > 10 µM | 4.9 | Cc1ccc(-c2ccc3c(c2)CC(NS(=O)(=O)C(C)C)C3)nc1 (stereo unspecified) | –
